Marks after values point to notes of the source that are not given here.
What was measured:
[1] = test system: HCT-116 colon cancer xenografts; assay: Tumor growth inhibition of HCT-116 colon cancer xenografts in tumor-bearing nude mice (tumor volume, TGI %, RTV, T/C %); assay type: in vivo, Balb/c Nude mice; conditions: for T/C % (relative tumor proliferation rate): dosage 400 mg/kg (G10-G16 study);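 as to T/C % (relative tumor proliferation rate): control C is the vehicle-treated model control group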
How it was run: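 Nude mice inoculated with HCT-116 cells (about 3×10^7 cells/mL in serum-free medium). Tumor diameter measured three times weekly and volume computed as V=3/4π(D/2)^3. Activity expressed as TGI (%) and T/C (%) from relative tumor volume Vt/V0, with V0 taken at grouping and dosing start; P<0.05 significant.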

[2] = How it was run: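 Female SPF Balb/c nude mice bearing subcutaneous HCT-116 xenografts (3×10^6 cells, right hind limb), grouped at 60–150 mm^3, 6 per group; vehicle ethanol/Cremophor EL/saline 5:5:90. Body weight thrice weekly; tumours excised and weighed at sacrifice; Mean±SEM, unpaired t-test, P<0.05.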
[3] = Day 0, G10-G16 groups, single IP 400 mg/kg
[4] = Day 0, G10-G16 groups, single IP 400 mg/kg, Mean±SEM
[5] = Day 1, G10-G16 groups, single IP 400 mg/kg, Mean±SEM
[6] = Day 2, G10-G16 groups, single IP 400 mg/kg, Mean±SEM
[7] = Day 4, G10-G16 groups, single IP 400 mg/kg, Mean±SEM
[8] = Day 7, G10-G16 groups, single IP 400 mg/kg, Mean±SEM
[9] = Day 9, G10-G16 groups, single IP 400 mg/kg, Mean±SEM
[10] = Day 11, G10-G16 groups, single IP 400 mg/kg, Mean±SEM
[11] = Day 14, G10-G16 groups, single IP 400 mg/kg, Mean±SEM
[12] = Day 16, G10-G16 groups, single IP 400 mg/kg, Mean±SEM
[13] = Day 18, G10-G16 groups, single IP 400 mg/kg, Mean±SEM
[14] = Day 21, G10-G16 groups, single IP 400 mg/kg, Mean±SEM
[15] = Day 23, G10-G16 groups, single IP 400 mg/kg, Mean±SEM
[16] = Day 25, G10-G16 groups, single IP 400 mg/kg, Mean±SEM
[17] = Day 28, G10-G16 groups, single IP 400 mg/kg, Mean±SEM
[18] = Day 30, G10-G16 groups, single IP 400 mg/kg, Mean±SEM

## O=C(COc1nc(Cl)c(Cl)cc1Cl)OC[C@H]1O[C@@H](n2cc(Br)c(NC(=O)OCc3ccccc3)nc2=O)C(F)(F)C1O (stereo partly shown) [Compound G10]
[1]; [3]
  Day 0 (RTV): 1.00
[1]; [4]
  Tumor volume, Day 0: 83.23 ± 12.39 mm^3
[1]; Day 0
  T/C % (relative tumor proliferation rate): 0.00%
[1]; Day 1, G10-G16 groups, single IP 400 mg/kg
  Day 1 (TGI %): 50.51%
[1]; [5]
  Day 1 (RTV): 1.06 ± 0.12
  Tumor volume, Day 1: 89.33 ± 14.35** mm^3
[1]; Day 1
  T/C % (relative tumor proliferation rate): 63.00%
[1]; Day 2, G10-G16 groups, single IP 400 mg/kg
  Day 2 (TGI %): 51.72%
[1]; [6]
  Day 2 (RTV): 1.27 ± 0.16
  Tumor volume, Day 2: 108.22 ± 18.22** mm^3
[1]; Day 2
  T/C % (relative tumor proliferation rate): 61.29%
[1]; Day 4, G10-G16 groups, single IP 400 mg/kg
  Day 4 (TGI %): 48.03%
[1]; [7]
  Day 4 (RTV): 1.83 ± 0.20
  Tumor volume, Day 4: 154.33 ± 27.49** mm^3
[1]; Day 4
  T/C % (relative tumor proliferation rate): 66.28%
[1]; Day 7, G10-G16 groups, single IP 400 mg/kg
  Day 7 (TGI %): 46.09%
[1]; [8]
  Day 7 (RTV): 2.82 ± 0.25
  Tumor volume, Day 7: 233.13 ± 37.06** mm^3
[1]; Day 7
  T/C % (relative tumor proliferation rate): 69.09%
[1]; Day 9, G10-G16 groups, single IP 400 mg/kg
  Day 9 (TGI %): 33.35%
[1]; [9]
  Day 9 (RTV): 4.84 ± 0.55
  Tumor volume, Day 9: 393.47 ± 68.53 mm^3
[1]; Day 9
  T/C % (relative tumor proliferation rate): 86.30%
[1]; Day 11, G10-G16 groups, single IP 400 mg/kg
  Day 11 (TGI %): 38.55%
[1]; [10]
  Day 11 (RTV): 7.60 ± 0.85
  Tumor volume, Day 11: 599.83 ± 84* mm^3
[1]; Day 11
  T/C % (relative tumor proliferation rate): 82.36%
[1]; Day 14, G10-G16 groups, single IP 400 mg/kg
  Day 14 (TGI %): 30.82%
[1]; [11]
  Day 14 (RTV): 13.37 ± 2.23
  Tumor volume, Day 14: 996.32 ± 91.77* mm^3
[1]; Day 14
  T/C % (relative tumor proliferation rate): 96.62%
[1]; Day 16, G10-G16 groups, single IP 400 mg/kg
  Day 16 (TGI %): 24.07%
[1]; [12]
  Day 16 (RTV): 18.63 ± 3.27
  Tumor volume, Day 16: 1375.20 ± 109.23* mm^3
[1]; Day 16
  T/C % (relative tumor proliferation rate): 107.93%
[1]; Day 18, G10-G16 groups, single IP 400 mg/kg
  Day 18 (TGI %): 18.11%
[1]; [13]
  Day 18 (RTV): 22.45 ± 4.24
  Tumor volume, Day 18: 1636.39 ± 114.98 mm^3
[1]; Day 18
  T/C % (relative tumor proliferation rate): 117.59%
[1]; Day 21, G10-G16 groups, single IP 400 mg/kg
  Day 21 (TGI %): 14.51%
[1]; [14]
  Day 21 (RTV): 29.09 ± 6.00
  Tumor volume, Day 21: 2090.18 ± 124.45 mm^3
[1]; Day 21
  T/C % (relative tumor proliferation rate): 124.28%
[1]; Day 23, G10-G16 groups, single IP 400 mg/kg
  Day 23 (TGI %): 10.21%
[1]; [15]
  Day 23 (RTV): 29.56 ± 5.99
  Tumor volume, Day 23: 2120.63 ± 111.71 mm^3
[1]; Day 23
  T/C % (relative tumor proliferation rate): 149.49%
[1]; Day 25, G10-G16 groups, single IP 400 mg/kg
  Day 25 (TGI %): 11.18%
[1]; [16]
  Day 25 (RTV): 31.95 ± 6.61
  Tumor volume, Day 25: 2293.73 ± 132.31 mm^3
[1]; Day 25
  T/C % (relative tumor proliferation rate): 147.80%
[1]; Day 28, G10-G16 groups, single IP 400 mg/kg
  Day 28 (TGI %): 10.61%
[1]; [17]
  Day 28 (RTV): 35.86 ± 7.35
  Tumor volume, Day 28: 2404.00 ± 127.93 mm^3
[1]; Day 28
  T/C % (relative tumor proliferation rate): 169.72%
[1]; Day 30, G10-G16 groups, single IP 400 mg/kg
  Day 30 (TGI %): 10.17%
[1]; [18]
  Day 30 (RTV): 40.27 ± 10.35
  Tumor volume, Day 30: 2520.69 ± 108.41 mm^3
[1]; Day 30
  T/C % (relative tumor proliferation rate): 162.31%
[2]; [3]
  Weight change rate, Day 0: 0.00%
[2]; [4]
  Weight of mice, Day 0: 19.90 ± 0.17 g
[2]; [5]
  Weight change rate, Day 1: −1.76 ± 0.49%
  Weight of mice, Day 1: 19.55 ± 0.21 g
[2]; [6]
  Weight change rate, Day 2: −0.85 ± 0.43%
  Weight of mice, Day 2: 19.73 ± 0.25 g
[2]; [7]
  Weight change rate, Day 4: 1.94 ± 0.91 %
  Weight of mice, Day 4: 20.28 ± 0.19 g
[2]; [8]
  Weight change rate, Day 7: 0.61 ± 0.70 %
  Weight of mice, Day 7: 20.02 ± 0.09 g
[2]; [9]
  Weight change rate, Day 9: 3.04 ± 1.24 %
  Weight of mice, Day 9: 20.50 ± 0.24 g
[2]; [10]
  Weight change rate, Day 11: 2.77 ± 1.51%
  Weight of mice, Day 11: 20.45 ± 0.32 g
[2]; [11]
  Weight change rate, Day 14: −1.53 ± 2.52%
  Weight of mice, Day 14: 19.60 ± 0.57 g
[2]; [12]
  Weight change rate, Day 16: −2.19 ± 3.22%
  Weight of mice, Day 16: 19.47 ± 0.68 g
[2]; [13]
  Weight change rate, Day 18: −1.80 ± 3.13%
  Weight of mice, Day 18: 19.55 ± 0.70 g
[2]; [14]
  Weight change rate, Day 21: −2.23 ± 3.14%
  Weight of mice, Day 21: 19.47 ± 0.72 g
[2]; Day 22, single IP dose (mg/kg)
  Day 22 Mortality: 0%
[2]; [15]
  Weight change rate, Day 23: −2.41 ± 3.42%
  Weight of mice, Day 23: 19.43 ± 0.78 g
[2]; [16]
  Weight change rate, Day 25: −1.80 ± 3.06%
  Weight of mice, Day 25: 19.55 ± 0.69 g
[2]; [17]
  Weight change rate, Day 28: −1.77 ± 2.66%
  Weight of mice, Day 28: 19.54 ± 0.67 g
[2]; [18]
  Weight change rate, Day 30: −1.95 ± 3.04%
  Weight of mice, Day 30: 19.55 ± 0.79 g
[2]; after single IP dose, compared with model control group
  clinical symptoms: no significant differences in clinical symptoms
